IC50 data for 65 molecules are collected here from US10093678B2, “Azaspiro derivatives as TRPM8 antagonists” (RaQualia Pharma Inc., priority 2014, dated 2018).

The structures appear in SMILES notation.

The target of the experiment is T1, human TRPM8 (Homo sapiens, UniProt Q7Z2W7).
T1 construct: expressed in transfected cells; host or cells: HEK293
T1 sequence (Q7Z2W7 whole entry): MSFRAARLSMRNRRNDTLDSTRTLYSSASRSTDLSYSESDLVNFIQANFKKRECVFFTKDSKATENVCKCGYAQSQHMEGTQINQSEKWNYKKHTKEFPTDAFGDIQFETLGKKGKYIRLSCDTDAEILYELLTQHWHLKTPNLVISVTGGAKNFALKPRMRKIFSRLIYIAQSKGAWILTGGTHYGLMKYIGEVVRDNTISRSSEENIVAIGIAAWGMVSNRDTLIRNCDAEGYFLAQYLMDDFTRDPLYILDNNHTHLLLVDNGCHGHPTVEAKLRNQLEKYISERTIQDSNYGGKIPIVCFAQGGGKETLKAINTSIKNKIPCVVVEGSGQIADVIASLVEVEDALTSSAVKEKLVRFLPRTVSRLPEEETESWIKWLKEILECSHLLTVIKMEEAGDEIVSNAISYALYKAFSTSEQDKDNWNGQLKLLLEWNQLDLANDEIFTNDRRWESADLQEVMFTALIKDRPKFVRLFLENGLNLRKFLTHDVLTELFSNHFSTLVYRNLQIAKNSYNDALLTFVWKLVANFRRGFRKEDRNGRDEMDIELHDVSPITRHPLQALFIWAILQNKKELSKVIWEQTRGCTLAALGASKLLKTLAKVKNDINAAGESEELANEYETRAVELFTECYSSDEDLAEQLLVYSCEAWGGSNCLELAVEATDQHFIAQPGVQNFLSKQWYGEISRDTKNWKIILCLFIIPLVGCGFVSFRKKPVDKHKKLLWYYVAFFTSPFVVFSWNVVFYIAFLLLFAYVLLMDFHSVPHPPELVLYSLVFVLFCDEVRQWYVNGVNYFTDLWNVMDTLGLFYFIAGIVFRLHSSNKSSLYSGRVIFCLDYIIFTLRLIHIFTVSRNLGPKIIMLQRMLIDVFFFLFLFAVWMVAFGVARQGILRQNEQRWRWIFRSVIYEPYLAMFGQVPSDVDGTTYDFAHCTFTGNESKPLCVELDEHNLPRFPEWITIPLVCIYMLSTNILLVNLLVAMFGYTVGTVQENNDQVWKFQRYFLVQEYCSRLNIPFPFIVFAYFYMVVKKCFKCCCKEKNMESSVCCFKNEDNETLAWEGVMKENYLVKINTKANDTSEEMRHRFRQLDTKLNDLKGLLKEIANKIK
Kind of experiment: Menthol-induced Ca2+ influx in HEK293 cells stably expressing human TRPM8. It counts as cell-based. To be noted: 30 microM menthol-induced Ca2+ influx, read-out: IC50 against TRPM8. The procedure, abridged:
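HEK293 cells stably expressing human TRPM8 were loaded with Fluo4-AM for 1 h at room temperature, preincubated 5 min with compound, then challenged with 30 microM menthol. Calcium rise was read by FDSS imaging. IC50 came from 11-point curves using duplicate-well means.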
With `O=C(CN1C(=O)NC2(CCC(F)(F)CC2)C1=O)c1ccc(-c2cnn3ccccc23)cc1` [Example 6-67], the IC50 was under 100 nM.
For `Cc1ccc2nc(C)n(-c3ccc(C(=O)CN4C(=O)NC5(CCC(F)(F)CC5)C4=O)cc3)c2n1` [Example 5-27], the 50% inhibitory concentration (IC50) is under 10 nM.
`Cc1cc(C(=O)CN2C(=O)NC3(CCC(F)(F)CC3)C2=O)n(C)c1-c1cccc(F)c1` [Example 16-5]: the IC50 was under 100 nM.
With `Nc1cnccc1-c1ccc(C(=O)CN2C(=O)NC3(CCC(F)(F)CC3)C2=O)cc1` [Example 6-113] the figure was under 500 nM.
Consider `Cc1cc(C(=O)CN2C(=O)NC3(CCCCC3)C2=O)sc1-c1ccccc1CO` [Example 14-2], for which the IC50 is under 100 nM.
In the case of `NCc1ncccc1-c1ccc(C(=O)CN2C(=O)NC3(CCC(F)(F)CC3)C2=O)cc1` [Example 6-56, 3-(2-(4-(2-(aminomethyl)pyridin-3-yl)phenyl)-2-oxoethyl)-8,8-difluoro-1,3-diazaspiro[4.5]decane-2,4-dione], the concentration for half-maximal inhibition (IC50) was under 500 nM.
The same measure for `O=C(CN1C(=O)OC2(CCC(F)(F)CC2)C1=O)c1ccc(-c2ccccn2)cc1` [Example 7-24]: under 100 nM.
Regarding `Cc1cc(C(=O)CN2C(=O)NC3(CCC(F)(F)CC3)C2=O)sc1-c1cnccc1CO` [Example 14-6], the IC50 is under 100 nM.
For the molecule `O=C(CN1C(=O)NC2(CCC(F)(F)CC2)C1=O)c1ccc(-c2ccccc2CO)c(Cl)c1` [Example 13-27], the IC50 was under 100 nM.
The same measure for `N#Cc1cccc(-c2ccc(C(=O)CN3C(=O)NC4(CCC(F)(F)CC4)C3=O)cc2)n1` [Example 6-26]: under 100 nM; for `Cc1cc(C(=O)CN2C(=O)NC3(CCC(F)(F)CC3)C2=O)sc1-c1ccccc1C#N` [Example 14-8]: under 100 nM.
As for `Cc1cc(C(=O)CN2C(=O)NC3(CCC(F)(F)CC3)C2=O)ccc1-c1cccc(F)c1` [Example 13-17], the concentration for half-maximal inhibition (IC50) was under 100 nM.
In the case of `CS(=O)(=O)c1ccccc1-c1ccc(C(=O)CN2C(=O)NC3(CCC(F)(F)CC3)C2=O)cc1` [Example 6-53], the IC50 is under 500 nM.
The same measure for `O=C(CN1C(=O)NC2(CCC(F)(F)CC2)C1=O)c1ccc(-c2cccnc2CO)c(F)c1` [Example 8-5]: under 100 nM; for `Cc1nc(C(=O)CN2C(=O)NC3(CCC(F)(F)CC3)C2=O)sc1-c1cccc(F)c1` [Example 18-5]: under 100 nM.
`Cc1ccnnc1-c1ccc(C(=O)CN2C(=O)NC3(CCCCC3)C2=O)cc1` [Example 7-23]: the IC50 is under 500 nM.
Take `O=C(CN1C(=O)NC2(CCC(F)(F)CC2)C1=O)c1ccc(-c2cnccc2CO)nc1` [Example 9-24]: the IC50 is under 100 nM.
With `O=C(CN1C(=O)NC2(CCC(F)(F)CC2)C1=O)c1ccc(N2CCCc3ccccc32)nc1` [Example 19-11], the 50% inhibitory concentration (IC50) was under 100 nM.
In the case of `Cc1cc(C(=O)CN2C(=O)NC3(CCC(F)(F)CC3)C2=O)n(C)c1-c1cc(F)cc(F)c1` [Example 16-9], the IC50 was under 100 nM.
Regarding `N#CCc1ccccc1-c1ccc(C(=O)CN2C(=O)NC3(CCC(F)(F)CC3)C2=O)cc1` [Example 6-108], the IC50 was under 100 nM.
`Cc1cc(C(=O)CN2C(=O)NC3(CCCCC3)C2=O)c(C)n1-c1cccc(N2CCCC(O)C2)n1` (centres unmarked) [Example 3-29, 3-(2-(1-(6-(3-hydroxypiperidin-1-yl)pyridin-2-yl)-2,5-dimethyl-1H-pyrrol-3-yl)-2-oxoethyl)-1,3-diazaspiro[4.5]decane-2,4-dione]: the IC50 is under 500 nM.
The same measure for `O=C(CN1C(=O)NC2(CCC(F)(F)CC2)C1=O)c1cnc(-c2ccccc2CO)cn1` [Example 12-3]: under 100 nM.
Turning to `O=C(CN1C(=O)NC2(CCC(F)(F)CC2)C1=O)c1ccc(-n2c(C3CC3)nc3cccnc32)cc1` [Example 24-3], the IC50 was under 500 nM.
With `Cc1cc(C(=O)CN2C(=O)NC3(CCC(F)(F)CC3)C2=O)sc1-c1cccc(C(N)=O)c1` [Example 14-18] the figure was under 500 nM; with `Cc1nc(C(=O)CN2C(=O)NC3(CCC(F)(F)CC3)C2=O)n(C)c1-c1ccccc1` [Example 17-7], under 100 nM; with `O=C(CN1C(=O)NC2(CCC(F)(F)CC2)C1=O)c1ccc(-n2cnc3cncnc32)cc1` [Example 19-34], under 500 nM.
`O=C(CN1C(=O)NC2(CCC(F)(F)CC2)C1=O)c1ccc(-c2cncc3[nH]ncc23)nc1` [Example 9-27]: the IC50 is under 500 nM.
With `Cc1nc(C(=O)CN2C(=O)NC3(CCC(F)(F)CC3)C2=O)sc1-c1cc(F)cc(F)c1` [Example 18-11], the IC50 is under 100 nM.
For the molecule `CN(c1ccc(C(=O)CN2C(=O)NC3(CCC(F)(F)CC3)C2=O)cc1)c1ccccn1` [Example 19-16], the concentration for half-maximal inhibition (IC50) is under 100 nM.
As for `O=C(CN1C(=O)NC2(CCC(F)(F)CC2)C1=O)c1ccc(-c2cccc3[nH]ncc23)nc1` [Example 9-14], the IC50 is under 100 nM.
As for `Cc1ccnc(Oc2ccc(C(=O)CN3C(=O)NC4(CCC(F)(F)CC4)C3=O)cc2)c1` [Example 21-4], the IC50 is under 500 nM.
As for `Cc1cc(C(=O)CN2C(=O)NC3(CCC(F)(F)CC3)C2=O)sc1-c1cncc(C#N)c1` [Example 14-13], the IC50 was under 100 nM.
With `Cc1ccnnc1-c1ccc(C(=O)CN2C(=O)NC3(CCC(F)(F)CC3)C2=O)cc1` [Example 6-14] the figure was under 100 nM; with `COc1nccnc1-c1ccc(C(=O)CN2C(=O)NC3(CCC(F)(F)CC3)C2=O)cc1` [Example 6-97], under 100 nM; with `Cc1cc(C(=O)CN2C(=O)NC3(CCC(F)(F)CC3)C2=O)ccc1-c1cccc(C(N)=O)c1` [Example 13-13], under 100 nM.
Turning to `O=C(CN1C(=O)NC2(CCC(F)(F)CC2)C1=O)c1ccc(-c2nccs2)cc1` [Example 6-95], the IC50 is under 500 nM.
In the case of `O=C(CN1C(=O)NC2(CCC(F)(F)CC2)C1=O)c1ccc(-c2nccnc2OCCO)cc1` [Example 6-54, 8,8-difluoro-3-(2-(4-(3-(2-hydroxyethoxy)pyrazin-2-yl)phenyl)-2-oxoethyl)-1,3-diazaspiro[4.5]decane-2,4-dione], the IC50 was under 100 nM.
With `Cc1sc(C(=O)CN2C(=O)NC3(CCC(F)(F)CC3)C2=O)c(C)c1-c1cccc(C#N)c1` [Example 15-3], the concentration for half-maximal inhibition (IC50) was under 100 nM.
The same measure for `Cc1ccccc1-c1cnc(C(=O)CN2C(=O)NC3(CCC(F)(F)CC3)C2=O)cn1` [Example 12-2]: under 100 nM; for `N#Cc1cccnc1-c1ccc(C(=O)CN2C(=O)NC3(CCC(F)(F)CC3)C2=O)cc1` [Example 6-87]: under 100 nM.
The same measure for `Cc1cc(C(=O)CN2C(=O)NC3(CCC(F)(F)CC3)C2=O)n(C)c1-c1cccc2ccncc12` [Example 16-15]: under 100 nM; for `O=C(CN1C(=O)NC2(CCC(F)(F)CC2)C1=O)c1ccc(Oc2cccnc2)cc1F` [Example 21-16]: under 500 nM.
`Cc1ccncc1-c1c(C)cc(C(=O)CN2C(=O)NC3(CCC(F)(F)CC3)C2=O)n1C` [Example 16-10]: the IC50 is under 100 nM.
With `CN(c1ccccc1)c1ccc(C(=O)CN2C(=O)NC3(CCC(F)(F)CC3)C2=O)cn1` [Example 19-9], the IC50 was under 100 nM.
With `O=C(CN1C(=O)NC2(CCCCC2)C1=O)c1ccc(Oc2cccnn2)cc1` [Example 5-40] the figure was under 500 nM; with `O=C(CN1C(=O)NC2(CCC(F)(F)CC2)C1=O)c1ccc(N2C(=O)CCc3ccccc32)cc1` [Example 19-27], under 500 nM.
The same measure for `O=C(CN1C(=O)NC2(CCC(F)(F)CC2)C1=O)c1ccc(-c2ccncc2Cl)cc1` [Example 6-122]: under 100 nM; for `Cc1cc(C(=O)CN2C(=O)NC3(CCC(F)(F)CC3)C2=O)n(C)c1-c1cccc2[nH]ncc12` [Example 16-35]: under 500 nM; for `Cc1ccccc1-c1sc(C(=O)CN2C(=O)NC3(CCC(F)(F)CC3)C2=O)cc1C` [Example 14-11]: under 100 nM.
With `Cc1cccnc1Oc1ccc(C(=O)CN2C(=O)NC3(CCC(F)(F)CC3)C2=O)cc1` [Example 21-3], the half-maximal inhibitory concentration (IC50) was under 500 nM.
As to `N#Cc1cccc(Oc2ccc(C(=O)CN3C(=O)NC4(CCC(F)(F)CC4)C3=O)cc2)n1` [Example 21-5], the IC50 was under 100 nM.
As for `Cc1nc(C(=O)CN2C(=O)NC3(CCC(F)(F)CC3)C2=O)sc1-c1cccnc1` [Example 18-1], the IC50 is under 100 nM.
With `N#Cc1cccc(-c2c(F)cc(C(=O)CN3C(=O)NC4(CCC(F)(F)CC4)C3=O)cc2F)c1` [Example 13-33] the figure was under 500 nM.
For the molecule `Cc1nc(C(=O)CN2CC3(CCC(F)(F)CC3)OC2=O)c(C)n1-c1ccccc1` [Example 2-7], the IC50 was under 500 nM.
Consider `O=C(CN1C(=O)NC2(CCCCC2)C1=O)c1ccc(-c2ccccc2CO)nc1` [Example 9-5], for which the half-maximal inhibitory concentration (IC50) is under 100 nM.
With `N#Cc1ncccc1-c1ccc(C(=O)CN2C(=O)NC3(CCCCC3)C2=O)cc1` [Example 7-8], the 50% inhibitory concentration (IC50) was under 100 nM.
The same measure for `Cc1nc(C(=O)CN2C(=O)OC3(CCC(F)(F)CC3)C2=O)c(C)n1-c1ccccc1` [Example 2-3]: under 100 nM.
On to `O=C(CN1C(=O)NC2(CCC(F)(F)CC2)C1=O)c1ccc(-c2ccccc2CN2CCCC2)cc1` [Example 6-104], for which the IC50 is under 500 nM.
For `O=C(CN1C(=O)NC2(CCC(F)(F)CC2)C1=O)c1cnc(-c2cccc3cccnc23)cn1` [Example 12-6], the concentration for half-maximal inhibition (IC50) is under 100 nM.
`Cc1cc(C(=O)CN2C(=O)NC3(CCC(F)(F)CC3)C2=O)sc1-c1cnccc1C(F)(F)F` [Example 14-15]: the half-inhibitory concentration (IC50) was under 100 nM.
Take `O=C(CN1C(=O)NC2(CCC(F)(F)CC2)C1=O)c1ccc(-c2cccc3ncncc23)cc1` [Example 6-45]: the IC50 was under 100 nM.
Regarding `Cc1ncncc1-c1ccc(C(=O)CN2C(=O)NC3(CCC(F)(F)CC3)C2=O)cc1` [Example 6-34], the IC50 was under 100 nM.
Turning to `O=C(CN1C(=O)NC2(CCC(F)(F)CC2)C1=O)c1ccc(-c2cncc(F)c2)c(Cl)c1` [Example 13-26], the IC50 is under 100 nM.
On to `O=C(CN1C(=O)NC2(CCC(F)(F)CC2)C1=O)c1ccc(-c2cnccc2CO)cc1` [Example 6-10], for which the concentration for half-maximal inhibition (IC50) is under 100 nM.
For the molecule `Cc1nc(C(=O)CN2C(=O)NC3(CCC(F)(F)CC3)C2=O)sc1-c1cccc(C(N)=O)c1` [Example 18-7], the 50% inhibitory concentration (IC50) is under 500 nM.
